Earlier results in patent US9044383B1, “Compounds and methods for drug delivery via a human nail” (priority 2013, dated 2015).

What was measured:
overweight and obese men = conditions: taken orally
obesity in subjects = conditions: applied topically on the skin

C=C[C@@]1(C)CC(=O)[C@]2(O)[C@@]3(C)[C@@H](O)CCC(C)(C)[C@@H]3[C@H](O)[C@H](OC(C)=O)[C@@]2(C)O1 [forskolin, 7-beta-acetoxy-8,13-epoxy-1-alpha, 6-beta, 9-alpha-trihydroxylabd-14-en-1′-one]
effectiveness as a weight loss aid (overweight and obese men): favorable results
decreasing obesity (obesity in subjects): favorable results
solubility in organic solvents (organic solvents such as ethanol, chloroform, and dimethyl surfoxide): soluble
solubility in water (with 2% ethanol) (water with 2% ethanol, first dissolved in ethanol or dimethyl surfoxide at 5 mg/mL, then diluted with water): up to 0.2 mm
